# Results: publication PMC6149898, “GPCR Modulation of Thieno[2,3-b]pyridine Anti-Proliferative Agents” (Molecules : A Journal of Synthetic Chemistry and Natural …, 2017)
# Experiments:
# [1] = system: ME:UACC-62; parameters: method as in earlier work; conditions: NCI-60 panel; ref [4],[5],[6],[7]; cited from earlier work
# [2] = target: LHCGR (Homo sapiens, UniProt P22888); assay: gpcrMAX PathHunter beta-arrestin
# [3] = system: RE:786-0; parameters: method as in earlier work; conditions: NCI-60 panel; ref [4],[5],[6],[7]; cited from earlier work
# [4] = target: TBXA2R (Homo sapiens, UniProt P21731); assay: gpcrMAX PathHunter beta-arrestin
# [5] = system: LC:NCI-H322M; parameters: method as in earlier work; conditions: NCI-60 panel; ref [4],[5],[6],[7]; cited from earlier work
# [6] = target: PTHR2 (Homo sapiens, UniProt P49190); assay: gpcrMAX PathHunter beta-arrestin
# [7] = system: CO:HCT-116; parameters: method as in earlier work; conditions: NCI-60 panel; ref [4],[5],[6],[7]; cited from earlier work
# [8] = target: P2RY1 (Homo sapiens, UniProt P47900); assay: gpcrMAX PathHunter beta-arrestin
# [9] = target: HRH4 (Homo sapiens, UniProt Q9H3N8); assay: gpcrMAX PathHunter beta-arrestin
# [10] = target: AVPR2 (Homo sapiens, UniProt P30518); assay: gpcrMAX PathHunter beta-arrestin
# [11] = system: CO:HCC-2998; parameters: method as in earlier work; conditions: NCI-60 panel; ref [4],[5],[6],[7]; cited from earlier work
# [12] = target: C3AR1 (Homo sapiens, UniProt Q16581); assay: gpcrMAX PathHunter beta-arrestin
# [13] = target: HRH1 (Homo sapiens, UniProt P35367); assay: gpcrMAX PathHunter beta-arrestin
# [14] = target: CCKAR (Homo sapiens, UniProt P32238); assay: gpcrMAX PathHunter beta-arrestin
# [15] = target: EDG7 (Homo sapiens, UniProt Q9UBY5); assay: gpcrMAX PathHunter beta-arrestin
# [16] = target: CCR10 (Homo sapiens, UniProt P46092); assay: gpcrMAX PathHunter beta-arrestin
# [17] = system: LE:CCRF-CEM; parameters: method as in earlier work; conditions: NCI-60 panel; ref [4],[5],[6],[7]; cited from earlier work
# [18] = system: ME:MALME-3M; parameters: method as in earlier work; conditions: NCI-60 panel; ref [4],[5],[6],[7]; cited from earlier work
# [19] = target: MTNR1A (Homo sapiens, UniProt P48039); assay: gpcrMAX PathHunter beta-arrestin
# [20] = system: CO:SW-620; parameters: method as in earlier work; conditions: NCI-60 panel; ref [4],[5],[6],[7]; cited from earlier work
# [21] = target: GPR103 (Homo sapiens, UniProt Q96P65); assay: gpcrMAX PathHunter beta-arrestin
# [22] = target: PTGER2 (Homo sapiens, UniProt P43116); assay: gpcrMAX PathHunter beta-arrestin
# [23] = target: HTR2C (Homo sapiens, UniProt P28335); assay: gpcrMAX PathHunter beta-arrestin
# [24] = target: GLP2R (Homo sapiens, UniProt O95838); assay: gpcrMAX PathHunter beta-arrestin
# [25] = target: VIPR2 (Homo sapiens, UniProt P41587); assay: gpcrMAX PathHunter beta-arrestin
# [26] = target: CCR9 (Homo sapiens, UniProt P51686); assay: gpcrMAX PathHunter beta-arrestin
# [27] = target: HTR1F (Homo sapiens, UniProt P30939); assay: gpcrMAX PathHunter beta-arrestin
# [28] = target: CALCR (Homo sapiens, UniProt P30988); assay: gpcrMAX PathHunter beta-arrestin
# [29] = target: FSHR (Homo sapiens, UniProt P23945); assay: gpcrMAX PathHunter beta-arrestin
# [30] = system: LC:NCI-H226; parameters: method as in earlier work; conditions: NCI-60 panel; ref [4],[5],[6],[7]; cited from earlier work
# [31] = target: HCRTR2 (Homo sapiens, UniProt O43614); assay: gpcrMAX PathHunter beta-arrestin
# [32] = target: PTGER4 (Homo sapiens, UniProt P35408); assay: gpcrMAX PathHunter beta-arrestin
# [33] = target: MC1R (Homo sapiens, UniProt Q01726); assay: gpcrMAX PathHunter beta-arrestin
# [34] = target: P2RY12 (Homo sapiens, UniProt Q9H244); assay: gpcrMAX PathHunter beta-arrestin
# [35] = target: OPRL1 (Homo sapiens, UniProt P41146); assay: gpcrMAX PathHunter beta-arrestin
# [36] = system: OV:OVCAR-8; parameters: method as in earlier work; conditions: NCI-60 panel; ref [4],[5],[6],[7]; cited from earlier work
# [37] = target: FFAR1 (Homo sapiens, UniProt O14842); assay: gpcrMAX PathHunter beta-arrestin
# [38] = system: ME:M14; parameters: method as in earlier work; conditions: NCI-60 panel; ref [4],[5],[6],[7]; cited from earlier work
# [39] = target: ADORA3 (Homo sapiens, UniProt P0DMS8); assay: gpcrMAX PathHunter beta-arrestin
# [40] = target: EDG6 (Homo sapiens, UniProt O95977); assay: gpcrMAX PathHunter beta-arrestin
# [41] = target: CRTH2 (Homo sapiens, UniProt Q9Y5Y4); assay: gpcrMAX PathHunter beta-arrestin
# P2RY12, sequence (Q9H244 whole entry, one chain of several): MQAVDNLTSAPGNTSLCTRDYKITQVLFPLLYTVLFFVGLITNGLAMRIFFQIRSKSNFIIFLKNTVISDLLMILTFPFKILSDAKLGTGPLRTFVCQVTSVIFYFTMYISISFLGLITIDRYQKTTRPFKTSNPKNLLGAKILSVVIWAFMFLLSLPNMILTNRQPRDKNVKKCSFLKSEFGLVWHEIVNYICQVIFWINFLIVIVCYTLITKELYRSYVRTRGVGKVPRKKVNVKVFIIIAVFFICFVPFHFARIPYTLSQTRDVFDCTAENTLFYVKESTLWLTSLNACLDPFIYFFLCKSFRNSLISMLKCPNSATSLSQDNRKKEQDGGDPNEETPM
# HTR1F, sequence (P30939 whole entry): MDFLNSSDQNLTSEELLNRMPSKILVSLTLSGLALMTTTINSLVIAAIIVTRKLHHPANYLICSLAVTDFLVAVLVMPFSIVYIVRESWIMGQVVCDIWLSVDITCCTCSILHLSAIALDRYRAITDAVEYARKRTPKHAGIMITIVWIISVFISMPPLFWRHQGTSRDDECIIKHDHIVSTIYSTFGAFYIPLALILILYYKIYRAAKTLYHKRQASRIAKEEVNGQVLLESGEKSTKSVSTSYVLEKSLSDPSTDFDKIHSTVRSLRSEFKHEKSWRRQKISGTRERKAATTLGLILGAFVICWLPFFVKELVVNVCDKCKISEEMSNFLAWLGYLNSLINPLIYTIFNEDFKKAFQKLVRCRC
# TBXA2R, sequence (P21731 whole entry): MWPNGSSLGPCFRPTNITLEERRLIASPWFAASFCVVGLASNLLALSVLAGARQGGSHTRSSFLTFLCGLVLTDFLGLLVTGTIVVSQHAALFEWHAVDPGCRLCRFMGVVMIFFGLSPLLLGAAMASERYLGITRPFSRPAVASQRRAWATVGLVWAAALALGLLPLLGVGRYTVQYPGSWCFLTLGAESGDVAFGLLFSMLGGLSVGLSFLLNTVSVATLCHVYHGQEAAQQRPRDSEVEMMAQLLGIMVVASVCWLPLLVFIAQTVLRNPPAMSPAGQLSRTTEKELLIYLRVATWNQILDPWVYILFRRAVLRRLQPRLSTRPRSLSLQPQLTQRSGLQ
# P2RY1, sequence (P47900 whole entry): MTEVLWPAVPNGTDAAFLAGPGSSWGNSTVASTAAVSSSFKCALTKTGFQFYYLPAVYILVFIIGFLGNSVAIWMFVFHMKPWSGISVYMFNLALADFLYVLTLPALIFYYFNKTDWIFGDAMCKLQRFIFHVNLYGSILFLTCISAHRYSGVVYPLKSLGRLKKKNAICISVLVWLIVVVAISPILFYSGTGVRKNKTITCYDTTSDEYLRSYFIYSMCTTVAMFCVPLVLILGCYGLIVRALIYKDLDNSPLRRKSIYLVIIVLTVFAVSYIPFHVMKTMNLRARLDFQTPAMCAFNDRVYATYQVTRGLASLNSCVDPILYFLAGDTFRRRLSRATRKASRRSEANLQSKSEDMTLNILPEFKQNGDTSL
# C3AR1, sequence (Q16581 whole entry): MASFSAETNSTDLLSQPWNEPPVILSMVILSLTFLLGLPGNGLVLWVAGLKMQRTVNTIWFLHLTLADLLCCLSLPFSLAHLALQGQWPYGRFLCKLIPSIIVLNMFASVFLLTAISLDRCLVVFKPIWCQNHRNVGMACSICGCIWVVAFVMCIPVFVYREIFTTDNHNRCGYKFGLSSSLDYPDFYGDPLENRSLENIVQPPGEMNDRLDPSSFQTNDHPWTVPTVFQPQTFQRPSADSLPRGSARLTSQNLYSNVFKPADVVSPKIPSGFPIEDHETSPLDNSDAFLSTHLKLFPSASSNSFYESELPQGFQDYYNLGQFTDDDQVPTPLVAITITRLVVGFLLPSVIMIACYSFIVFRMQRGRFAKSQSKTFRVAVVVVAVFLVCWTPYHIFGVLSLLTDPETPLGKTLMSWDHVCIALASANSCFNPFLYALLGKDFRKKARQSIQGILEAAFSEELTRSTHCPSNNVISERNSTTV
# MTNR1A, sequence (P48039 whole entry): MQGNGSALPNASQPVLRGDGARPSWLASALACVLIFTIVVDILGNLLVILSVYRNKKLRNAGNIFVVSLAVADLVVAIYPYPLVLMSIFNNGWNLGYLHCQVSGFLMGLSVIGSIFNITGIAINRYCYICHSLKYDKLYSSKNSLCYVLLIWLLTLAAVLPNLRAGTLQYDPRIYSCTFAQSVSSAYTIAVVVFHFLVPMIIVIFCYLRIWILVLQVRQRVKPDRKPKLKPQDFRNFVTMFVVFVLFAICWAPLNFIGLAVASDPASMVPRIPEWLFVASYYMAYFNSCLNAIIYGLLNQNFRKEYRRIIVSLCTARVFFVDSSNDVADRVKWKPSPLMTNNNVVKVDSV
# PTGER2, sequence (P43116 whole entry): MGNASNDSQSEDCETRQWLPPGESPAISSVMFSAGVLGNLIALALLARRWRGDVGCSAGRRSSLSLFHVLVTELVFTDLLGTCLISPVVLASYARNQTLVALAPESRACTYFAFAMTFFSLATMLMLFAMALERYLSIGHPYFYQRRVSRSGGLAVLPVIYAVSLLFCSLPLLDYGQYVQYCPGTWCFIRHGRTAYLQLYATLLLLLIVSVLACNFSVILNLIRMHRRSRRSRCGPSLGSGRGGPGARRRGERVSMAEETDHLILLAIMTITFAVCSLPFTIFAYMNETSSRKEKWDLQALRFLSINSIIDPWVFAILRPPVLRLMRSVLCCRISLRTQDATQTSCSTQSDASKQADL
# CALCR, sequence (P30988 25-474): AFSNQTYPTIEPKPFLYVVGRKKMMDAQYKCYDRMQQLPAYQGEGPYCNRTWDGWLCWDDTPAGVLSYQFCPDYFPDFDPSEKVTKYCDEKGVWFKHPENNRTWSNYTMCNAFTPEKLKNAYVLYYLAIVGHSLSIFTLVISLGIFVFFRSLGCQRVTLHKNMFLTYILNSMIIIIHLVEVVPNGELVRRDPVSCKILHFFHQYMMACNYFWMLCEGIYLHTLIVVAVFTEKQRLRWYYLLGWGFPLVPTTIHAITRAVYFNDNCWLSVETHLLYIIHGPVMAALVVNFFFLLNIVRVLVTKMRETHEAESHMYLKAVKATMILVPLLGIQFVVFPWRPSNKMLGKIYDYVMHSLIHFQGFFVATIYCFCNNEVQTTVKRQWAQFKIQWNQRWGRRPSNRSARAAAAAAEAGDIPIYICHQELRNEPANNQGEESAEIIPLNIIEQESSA
# CCR10, sequence (P46092 whole entry): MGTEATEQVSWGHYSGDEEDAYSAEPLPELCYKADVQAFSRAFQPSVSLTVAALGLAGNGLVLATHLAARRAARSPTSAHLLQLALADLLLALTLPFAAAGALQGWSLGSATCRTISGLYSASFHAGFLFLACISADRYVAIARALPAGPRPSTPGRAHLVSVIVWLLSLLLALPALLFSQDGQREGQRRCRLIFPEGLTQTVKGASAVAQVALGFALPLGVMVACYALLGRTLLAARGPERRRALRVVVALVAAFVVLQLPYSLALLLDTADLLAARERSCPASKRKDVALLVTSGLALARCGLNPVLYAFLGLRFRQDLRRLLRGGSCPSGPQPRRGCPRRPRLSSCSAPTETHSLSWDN
# PTHR2, sequence (P49190 25-550): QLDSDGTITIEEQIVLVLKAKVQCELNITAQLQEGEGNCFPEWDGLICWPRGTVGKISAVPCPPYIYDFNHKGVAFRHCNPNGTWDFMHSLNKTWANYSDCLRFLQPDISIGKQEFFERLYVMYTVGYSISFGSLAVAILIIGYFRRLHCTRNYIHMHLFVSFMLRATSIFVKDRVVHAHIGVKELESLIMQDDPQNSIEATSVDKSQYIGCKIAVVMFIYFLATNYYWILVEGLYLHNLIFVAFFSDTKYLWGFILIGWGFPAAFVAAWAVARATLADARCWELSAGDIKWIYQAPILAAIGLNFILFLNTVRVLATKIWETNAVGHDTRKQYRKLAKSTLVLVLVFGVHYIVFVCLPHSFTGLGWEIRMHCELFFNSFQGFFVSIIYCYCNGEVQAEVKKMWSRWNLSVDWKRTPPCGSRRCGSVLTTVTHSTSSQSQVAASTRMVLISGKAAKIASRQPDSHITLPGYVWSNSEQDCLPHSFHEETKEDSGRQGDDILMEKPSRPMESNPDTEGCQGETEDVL
# FFAR1, sequence (O14842 whole entry): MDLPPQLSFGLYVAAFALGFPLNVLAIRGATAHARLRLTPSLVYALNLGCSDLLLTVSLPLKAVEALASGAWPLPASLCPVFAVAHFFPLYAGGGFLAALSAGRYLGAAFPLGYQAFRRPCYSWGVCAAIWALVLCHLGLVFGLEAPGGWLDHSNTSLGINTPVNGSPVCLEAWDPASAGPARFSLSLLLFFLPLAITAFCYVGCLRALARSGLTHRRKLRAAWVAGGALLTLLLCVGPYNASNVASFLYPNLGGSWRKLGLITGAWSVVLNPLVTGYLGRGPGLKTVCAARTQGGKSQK
# EDG6, sequence (O95977 whole entry): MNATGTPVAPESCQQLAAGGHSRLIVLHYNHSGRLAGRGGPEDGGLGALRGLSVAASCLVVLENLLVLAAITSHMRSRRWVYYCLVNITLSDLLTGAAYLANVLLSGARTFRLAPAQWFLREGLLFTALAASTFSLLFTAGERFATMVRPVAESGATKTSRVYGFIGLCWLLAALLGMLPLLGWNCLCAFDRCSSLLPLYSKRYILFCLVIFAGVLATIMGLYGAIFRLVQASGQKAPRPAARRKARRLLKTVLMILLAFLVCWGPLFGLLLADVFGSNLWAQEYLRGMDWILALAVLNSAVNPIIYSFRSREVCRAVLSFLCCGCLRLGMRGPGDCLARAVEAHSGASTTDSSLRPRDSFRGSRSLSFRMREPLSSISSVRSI
smiles,measurement,setting,value
Cc1c(Cl)cccc1NC(=O)c1sc2nc3c(cc2c1N)C(=O)CCC3 [Compound 1],GI50,[1],50.3 nM
same,inhibition at 10 µM,[2],-2%
same,GI50,[3],103 nM
same,inhibition at 10 µM,[4],-1%
same,GI50,[5],306 nM
same,inhibition at 10 µM,[6],7%
same,GI50,[7],66.8 nM
same,inhibition at 10 µM,[8],24%
same,inhibition at 10 µM,[9],32%
same,inhibition at 10 µM,[10],13%
same,GI50,[11],213 nM
same,inhibition at 10 µM,[12],-3%
same,inhibition at 10 µM,[13],13%
same,inhibition at 10 µM,[14],6%
same,inhibition at 10 µM,[15],-8%
same,inhibition at 10 µM,[16],-49%
same,GI50,[17],141 nM
same,GI50,[18],36.3 nM
same,inhibition at 10 µM,[19],-15%
same,GI50,[20],48.6 nM
same,inhibition at 10 µM,[21],-5%
same,inhibition at 10 µM,[22],-5%
same,inhibition at 10 µM,[23],-4%
same,inhibition at 10 µM,[24],16%
same,inhibition at 10 µM,[25],12%
same,inhibition at 10 µM,[26],17%
same,inhibition at 10 µM,[27],-21%
same,inhibition at 10 µM,[28],-18%
same,inhibition at 10 µM,[29],30%
same,GI50,[30],102 nM
same,inhibition at 10 µM,[31],8%
same,inhibition at 10 µM,[32],7%
same,inhibition at 10 µM,[33],-16%
same,inhibition at 10 µM,[34],-25%
same,% Inhibition,"[34]; antagonist mode, 10 µM",no antagonist modulation was observed
same,inhibition at 10 µM,[35],-7%
same,GI50,[36],279 nM
same,inhibition at 10 µM,[37],-59%
same,GI50,[38],71.3 nM
same,inhibition at 10 µM,[39],25%
same,inhibition at 10 µM,[40],-6%
same,inhibition at 10 µM,[41],13%
